Entries after “also recorded” stand apart in the source; their conditions may differ.
Assays:
[1] = mouse, in vivo, iv; cited from earlier work
mice = conditions: cited from earlier work
Protocol: While in the name of “reduction” a proper toxicological study was not carried out, the toxicity of TAT-PAPTP was evident. Peptide toxicity issues are not often discussed in the literature, but peptides, in particular arginine-rich ones, can be toxic in vivo as well as for cultured cells. […] Here the TAT-PAPTP conjugate was administered at 5 µmol/kg bw. However, conjugates can behave differently and have different toxicities depending on the attached “cargo” [54, 65, 66], as confirmed by the results of the present ...

SHSY-5Y cells = test: MTS cell viability assay; format: cell-based; conditions: 24 h treatment, 20, 10 and 3 μM, absorbance 490 nm, n = 3
Protocol: SHSY-5Y cells (kindly provided by I. Szabò) were grown in Dulbecco’s Modified Eagle Medium (DMEM, Aurogene) supplemented with 10% (v/v) fetal bovine serum (FBS), 100 U/mL penicillin G, 0.1 mg/mL streptomycin and 5% glutamine.
SHSY-5Y cells were seeded (10,000 cells/well) in standard 96-well plates in DMEM (200 µL). After 24 h, the growth medium was replaced with a medium containing PAPTP and PAPTPL (from a stock solution in DMSO) at the desired final concentrations (20, 10 and 3 μM). DMEM without additions (CONTROL in Figure 2) was used as negative control. The final concentration of DMSO was 0.1% or lower in all cases (including control). After incubation for 24 h, 20 µL of CellTiter 96 AQUEOUS One solution (Promega, Italy) were added to each well and the plate was incubated at 37 °C in a humidified, 5% CO2 atmosphere for 4 h. Absorbance was measured at 490 nm to detect formazan formation.

[2] = format: in vivo, mouse; conditions: PAPTP 5 µmoles/kg bw i.v. in mouse plasma, same procedure
Protocol: The brains of these mice were analyzed to evaluate the presence of the construct in the tissue (see Section 4.7). Each brain was homogenized and incubated with an equal volume of phosphate-buffered saline (PBS, pH 12.5) for 24 h; 10 volumes of ethyl acetate were then added. After vigorous mixing, the organic phase was collected, concentrated and analyzed via HPLC. This procedure allows hydrolysis of the carbamate bond, leading to the extraction of PAPTPL, which is considered proportional to the amount of peptide-PAPTP conjugate (or its fragments) present in the brain.
The protocol set up for PAPTPL recovery turned out to be inefficient for the quantification of TAT-PAPTP. An alternative protocol was thus developed. Tissue obtained from untreated mice was weighed and homogenized with PBS pH 7.4 (1 vol) with a potter. The pre-established amount of analyte was added into tissue homogenates and, after thorough vortexing, 1 vol of PBS pH 12.5 was added and the sample was incubated with intermittent vortexing at 60 °C for 24 h. This step is required to allow the hydrolysis of the carbamate bond connecting the peptide and PAPTPL. 10 vol of ethyl acetate were added and, after vortexing and sonication for 2 min, the sample was centrifuged at 12,000× g, 7 min, Room Temperature. The organic phase was collected and concentrated with Hetovac VR-1. ACN was added to the concentrated sample to allow the resuspension of PAPTPL and analyzed via HPLC. Quantification was as described for PAPTPL.
Brain and liver obtained from untreated mice were weighed and homogenized with PBS pH 7.4 (1 vol) with a potter. The pre-established amount of analyte was added into tissue homogenates and, after thorough vortexing, 5 vol of acetone were added and the sample was sonicated for 2 min. Subsequently, 5 vol of ACN containing 0.1% trifluoracetic acid (TFA) were added and the sample was sonicated for 5 min. The sample was then centrifuged at 12,000× g for 7 min at 4 °C and the supernatant was collected, concentrated with a Hetovac VR-1, and analyzed via HPLC-UV.
To quantify the amount of An2-PAPTP stuck in the tissue, the pellet remaining after the procedure described above was incubated with intermittent Vortexing at 60 °C for 3 h with PBS pH 12.5/ACN 1:1 and then centrifuged at 12,000× g for 7 min. HPLC-UV analysis of the supernatant, measuring PAPTPL hydrolyzed from the tissue, thus indirectly reflects the amount of An2-PAPTPL in the pellet (Scheme 3). Quantification was as described for PAPTPL.
(§1) A stock solution of the peptide-PAPTP conjugates was prepared in DMSO. TAT-PAPTP was administered at 8 and 5 μmol/kg bw and An2-PAPTP only at 5 μmol/kg bw. The calculated quantity of drugs was diluted from the stock solution in saline or mouse plasma to a final volume of 200 μL.

[3] = Visible precipitation in mouse plasma vehicle; format: physicochemical; conditions: mouse plasma used as administration vehicle
Source text: We are not aware of other pharmacological studies utilizing plasma as a vehicle, but a precedent of sorts is provided by some rejuvenation or induced aging studies that examined the systemic effects of heterologous plasma administration.

orthotopic glioma = conditions: orthotopic murine model; cited from earlier work
Source text: (§2) In turn, this difficulty may be due at least in part precisely to the TPP group, since the parent compound, PAP-1, is effective against various Central Nervous System (CNS) disorders. This difficulty is not surprising if one compares the characteristics of ...

[4] = tested on: cultured glioma and glioblastoma cell lines; conditions: cited from earlier work
Source text: as §2

C57BL mice = test: Observed toxicity after tail vein injection; format: in vivo; conditions: 5 µmoles/kg bw by tail vein injection in mouse plasma; no proper toxicological study
Protocol: TAT-PAPTP (5 µmoles/kg bw) was administered by tail vein injection to 2 C57BL mice. […] The observed toxicity was not due to the use of plasma, since mice were not made ill by the administration of PAPTP or An2-PAPTP in the same vehicle (see below, Section 2.7).
as §1

[5] = Planar bilayer experiments (membrane permeabilization); conditions: 2 µM added to cis side, DPhPC bilayer, −40 mV, n = 3
Protocol: The possible effects of An2-PAPTP and TAT-PAPTP on phospholipid membranes were investigated using the lipid bilayer technique. Bilayers with a capacity of 100–150 pF were prepared “painting” a diphytanoylphosphatidylcholine (DPhPC, Avanti Polar Lipids) solution in octane across a 150-µm hole in a Delrin cuvette (Warner Instruments, a division of Harvard Bioscience, Inc., Holliston, MA, USA). The two compartments separated by the bilayer are identified as cis and trans, and all voltages refer to the cis side, zero being assigned to the trans (grounded) one. One mL of recording solution (150 mM KCl, 10 mM HEPES/KOH, pH 7.4) was placed in both compartments. The contents of both chambers were stirred by magnetic bars when necessary. […] An2-PAPTP or TAT-PAPTP (DMSO stock solution) in a final concentration of 0.5 µM were added to the cis side. The final concentration of DMSO was 0.6%. 2 µM gramicidin from Bacillus brevis (Sigma) was added to the cis side as control.
Electrical connections were made using Ag/AgCl electrodes and agar salt bridges to minimize eliminate liquid junction potentials. Data were acquired at 10 kHz using a Bilayer Clamp BC-525C amplifier (Warner Instruments, a division of Harvard Bioscience, Inc., Holliston, MA, USA.) and low-pass filtered at 300 Hz for presentation. […]

TWPKHFDKHTFYSILKLGKH [L57]
brain input [1]: approximately 0.04 % of the injected dose

TAT47–57: arginine-rich TAT peptide segment
LD50 (mice): 17.5 µmol/kg bw

O=c1ccc2c(OCCCCOc3ccc(CCC[P+](c4ccccc4)(c4ccccc4)c4ccccc4)cc3)c3ccoc3cc2o1.[I-] [PAPTP, (3-(4-(4-((7-oxo-7H-furo[3,2-g]benzopyran-4-yl)oxy)butoxy)phenyl)propyl) triphenyl phosphonium iodide]
cytotoxic effect (cell viability, MTS reduction assay) (SHSY-5Y cells): marked cytotoxicity | level in brain after i.v. PAPTP [2]: did not reach detectable levels | visible precipitates in plasma [3]: did not form visible precipitates | effect on tumor growth (orthotopic glioma): did not affect tumor growth | killing of cultured glioma and glioblastoma cell lines [4]: efficiently killed | observed toxicity in mice (C57BL mice): not made ill; also recorded: No sign of toxicity was observed

gramicidin
appearance of ion currents in planar bilayers (control) [5]: expected development of “fast” ion currents
